Results published in patent US12239644B2, “Composition for prevention or treatment of macular degeneration” (KYUNGPOOK NATIONAL UNIVERSITY INDUSTRY-ACADEMIC COOPERATION …, priority 2018, dated 2025).
Where two headings read alike, the source gives them in different places.

Assays:
[1] = test system: choroidal vascular endothelial cells; conditions: C57BL/6J choroid/sclera in Matrigel, day 3 to 5
Protocol: Effects of fursultiamine on the growth of choroidal vascular endothelial cells were evaluated by the ex vivo mouse choroid sprouting assay for age-related macular degeneration.
The eyeball was resected from C57BL/6J mice (Jackson Laboratory) at 3 or 4 weeks of age and the choroid/sclera was separated therefrom and sectioned into a size of 1 mm×1 mm. After being thawed on ice, Matrigel (Becton Dickinson, BD matrigel) in a liquid state was added in an amount of 300 μl to each well of 24-well plates and one of the cut choroid/sclera segments was seeded in the Matrigel in each well. Then, Matrigel was solidified for 10 min in a 37° C. incubator before adding 500 μl of an EGM medium (Lonza, Endothelial Growth Medium) to each well.
Subsequently, the growth of vascular endothelial cells was induced in a 37° C. incubator. The medium was exchanged every two days with a fresh one containing 20 μM or 50 μM fursultiamine-HCl. The growth of vascular endothelial cells from the choroid was monitored from the day of seeding the choroid/sclera and observed on day 3 to 5. The sprouting distances were measured at a total of 4 sites using the ImageJ software and averaged. Statistical analyses were performed with the Prism program, with statistical significance defined as p<0.05.

[2] = test system: laser-induced choroid neovascularization (CNV) models; conditions: C57BL/6J mice, 50 mg/kg orally for 8 days, one week after laser
Protocol: (§1) Statistical analyses were performed using the Prism program, with statistical significance defined as p<0.05.

laser-induced CNV models = conditions: C57BL/6J mice, 50 mg/kg orally for 8 days, one week after laser
Protocol: as §1

HIF-1α = conditions: ARPE-19 cells, 1% oxygen 4-6 hours, fursultiamine-HCl 20, 50, 100 μM
Protocol: After hypoxic exposure for 4-6 hours, the cells were lysed with a protein lysis buffer and protein isolation from the lysate was conducted.

VEGF = conditions: ARPE-19 medium
Protocol: ARPE-19 cells were seeded into 60-mm dishes and incubated overnight to adhere to the dishes. On the next day, the medium was replaced with serum-free medium. The cells were treated with fursultiamine-HCl (Toronto research chemical, F865230) or a vehicle (DMSO, Sigma-Aldrich) at the specific concentrations of 0 μM, 50 μM, and 100 μM and then exposed to 1% oxygen condition in a hypoxic chamber (INVIVO2 400, Baker). After hypoxic exposure for 4-6 hours, the cells were lysed with a protein lysis buffer and protein isolation from the lysate was conducted.
After 12 hours later, the medium was recovered and secreted levels of VEGF in the medium were measured using human VEGF enzyme linked immunoassay (ELISA) (R&D systems). Quantitation methods and concentration calculations were conducted according to the manufacturer's manual. Statistical analyses were performed using the Prism program, with statistical significance defined as p<0.05.

ARPE-19 cells = conditions: ARPE-19, LPS 10 ug/ml + fursultiamine 50 uM (24 h)
Protocol: To be specific, ARPE-19 cells were seeded onto 96-well XF plates, with the exchange of a fresh medium every two days. On day 5 after cell seeding, the cells were treated with 10 μg/ml LPS (lipopolysaccharides, Sigma-Aldrich) and then with 50 μM fursultiamine on day 6. On day 7, the medium was exchanged with an XF medium (Seahorse XF DMEM medium, Agilent) and the plates were left for 30 min at 37° C. in a non-CO2 incubator.
In order to assess mitochondrial spare capacity, the following mitochondrial electron transport inhibitors and respiratory uncouplers were used in corresponding steps: oligomycin (2 μM), FCCP (0.5 μM), rotenone (2 μM), and antimycin A (2 μM).
The oxygen consumption rate (OCR) was measured using an XFe96 analyzer (Agilent) according to the manufacturer's manual.

CC(=C(CCO)SSCC1CCCO1)N(C=O)Cc1cnc(C)nc1N (stereo in doubt) [Fursultiamine, thiamine tetrahydrofurfuryl disulfide]
Sprouting range (pixels) ([1]; Fursultiamine 20 uM): 229.926 ± 28.348 pixels
Sprouting range (pixels) ([1]; Fursultiamine 50 uM): 126.713 ± 22.810 pixels
vascular leakage for the late phase [2]: decreased
Lesion size (10^−3mm^2) (laser-induced CNV models): 15.7 ± 1.0 10^−3mm^2
expression of HIF-1α upregulated in the hypoxic condition (HIF-1α): reduced
VEGF (VEGF; 1% O2, Fursultiamine 50 μM): 163.4 ± 7.4 pg/mL
VEGF (VEGF; 1% O2, Fursultiamine 100 μM): 47.4 ± 4.6 pg/mL
OCR (%) (mitochondrial spare capacity) (ARPE-19 cells): 189.438 ± 21.392%
